Results as given in US20140228540A1, “POLYPEPTIDES THAT BIND TISSUE INHIBITOR OF METALLOPROTEINASE TYPE THREE (TIMP-3), COMPOSITIONS AND METHODS” (Amgen Inc., priority 2009, published 2014).

Key:
[1] = tested on: biotinylated recombinant human or mouse TIMP-3; test: TIMP-3 AlphaScreen binding assay
Description: Peptides were also evaluated by AlphaScreen® (Amplified Luminescent Proximity Homogeneous Assay; PerkinElmer, Waltham, Mass.) a very sensitive non-radioactive homogeneous assay technology that allows the screening of a large range of biological interactions and activities, substantially according to the manufacturer's instructions. Briefly, all dilutions are made in AlphaScreen® Buffer: [40 mM HEPES pH 7.5, 100 mM NaCl, 1 mM CaCl2, 0.1% BSA, 0.05% Tween-20]. The LRP-1 peptides are titrated in a separate polypropylene 96-well plate (Falcon) starting at 4 microM concentration and then diluted serially 3-fold for 12-points, with the last point buffer only. First 2 microL/well of protein titration curve is added to white, small volume, 384-well assay plate (Greiner Bio-One, Stonehouse, UK) in duplicate. Next, 2 microL of biotinylated (AFS, in-house conjmicroGation) recombinant human or mouse TIMP-3, is added at 12 nM (or 3 nM final assay concentration) to the assay plate. Lastly, in subdued light 4 microL of a mixture of streptavidin donor beads, anti-mouse IgG acceptor beads (PerkinElmer) both diluted to 20 microG/mL (10 microG/mL final assay concentration) and 2 nM (1 nM final concentration) rat-anti-HA (clone3F10)-HRP (Roche Diagnostics) is added to the plates. Plates containing 8 microL final assay volume are covered with TopSeal A (to prevent evaporation), spun quickly at 1000 rpm, and incubated overnight (covered with foil to prevent light exposure) before reading on Fusion plate reader (PerkinElmer) using AlphaScreen® parameters (excitation 680 nm and emission 520-620 nm). Data is analyzed using GraphPad Prism 4.01 software. Binding to TIMP-3 is reported as total signal (cps).

[2] = tested on: HTB-94 cells; test: Accumulation of TIMP-3 in the medium of cultured HTB-94 cells; format: cell-based
Description: This example describes an assay to evaluate the accumulation of TIMP-3 in the medium of cultured cells. HTB-94™ cells (a chondrocytic cell line available from the American Type Culture Collection, Manassas, Va.) are plated to 24-well tissue culture plates at 1×10̂5 cells per well in 1 ml growth medium (RPM11640, 10% FBS, 1% PSG), and incubated at 37 C, 5% CO2 overnight. The cells are then washed once with PBS, and the wells are replenished with 250 microL serum-free medium (RPM11640, 1% PSG; designated SF in the tables below) to which is added the polypeptide being tested or a control (for example medium containing heparin, 1 mg/ml). Proteins to be tested are diluted to appropriate concentrations, for example as shown in the Tables below, and added to the cells. Cells are then incubated at 37 C, 5% CO2 for two additional days, day 2 conditioned medium (CM) samples are collected and clarified by centrifugation (i.e., for 5 minutes at 10K RPM) and the supernatant fluid is collected and stored at −20 C until assayed. Analysis is done on 100 microL CM samples, either by Western blot or by using a standard human TIMP-3 ELISA as per the manufacturer's protocol (R&D Systems Inc., Minneapolis, Minn.).

| AlphaScreen total signal (cps) Assay 1 [1] | AlphaScreen total signal (cps) Assay 2 [1] | Molecule | TIMP-3 (ng/ml) in conditioned medium ([2]; Table 7, peptides 2 microM) [ng/mL] | TIMP-3 (ng/ml) in conditioned medium ([2]; Table 6, peptides 2 microM) [ng/mL] | other results |
| --- | --- | --- | --- | --- | --- |
| 4,000 cps | 9,000 cps | LA3-5: LRP-1 peptide multimer, amino acids 854-975 | 4.22 | – | – |
| 2,200 cps | – | LA27: LRP-1 peptide monomer, amino acids 3575-3612 | 0.65 | – | – |
| 2,200 cps | 2,000 cps | LA23-24: LRP-1 peptide multimer, amino acids 3413-3493 | 1.38 | – | – |
| 2,200 cps | 2,000 cps | LA3: LRP-1 peptide monomer, amino acids 854-894 | – | 0.60 | – |
| 9,000 cps | 3,500 cps | LA3-4: LRP-1 peptide multimer, amino acids 854-930 | – | – | – |
| 20,000 cps | 5,000 cps | LA25-26: LRP-1 peptide multimer, amino acids printed as 3594-3574 | 9.30 | – | – |
| – | – | Cluster III: LRP-1 peptide, amino acids 2524- (end not printed) | – | – | Accumulation of TIMP-3 in conditioned medium by Western blot [2]: did not result in significant accumulation |
| 2,200 cps | – | LA16: LRP-1 peptide monomer, amino acids 2734-2773 | – | 0.94 | – |
| 2,200 cps | 2,000 cps | LA4-5: LRP-1 peptide multimer, amino acids 895-975 | 2.68 | – | – |
| 150,000 cps | 120,000 cps | LA24-26: LRP-1 peptide multimer, amino acids 3453- (end not printed) | 10.38 | – | – |
| 2,200 cps | – | LA26: LRP-1 peptide monomer, amino acids 3536-3574 | 1.01 | – | – |
| 2,200 cps | – | LA22: LRP-1 peptide monomer, amino acids 3374-3412 | – | 0.96 | – |
| 2,200 cps | – | LA21: LRP-1 peptide monomer, amino acids 3334-3373 | – | 1.82 | – |
| 2,200 cps | 2,000 cps | LA24: LRP-1 peptide monomer, amino acids 3453-3493 | – | 0.41 | – |
| 2,000 cps | 8,000 cps | LA5-7: LRP-1 peptide multimer, amino acids 931-1061 | – | – | – |
| – | – | Cluster I: LRP-1 peptide, amino acids 27-114 of LRP-1 (SEQ ID NO:1) (protein, listed as Homo sapiens) CSPKQFACRDQITCISKGWRCDGERDCPDGSDEAPEICPQSKAQRCQPNEHNCLGTELCVPMSRLCNGVQDCMDGSDEGPHCRELQGN | 0.87 | 0.65 | TIMP-3 (ng/ml) in conditioned medium ([2]; Table 5, polypeptide 0.5 microM): 1.02 ng/mL; TIMP-3 (ng/ml) in conditioned medium ([2]; Table 5, polypeptide 1 microM): 0.86 ng/mL; TIMP-3 (ng/ml) in conditioned medium ([2]; Table 5, polypeptide 2 microM): 0.81 ng/mL; TIMP-3 (ng/ml) in conditioned medium ([2]; Table 8, polypeptide 0.5 microM): 1.41 ng/mL; TIMP-3 (ng/ml) in conditioned medium ([2]; Table 8, polypeptide 1 microM): 1.19 ng/mL; TIMP-3 (ng/ml) in conditioned medium ([2]; Table 8, polypeptide 2 microM): 1.44 ng/mL; Accumulation of TIMP-3 in conditioned medium by Western blot [2]: did not result in significant accumulation |
| 1,200 cps | – | LA13-15: LRP-1 peptide multimer, amino acids 2605- (end not printed) (protein) CGVGEFRCRDGTCIGNSSRCNQFVDCEDASDEMNCSATDCSSYFRLGVKGVLFQPCERTSLCYAPSWVCDGANDCGDYSDERDCPGVKRPRCPLNYFACPSGRCIPMSWTCDKEDDCEHGEDETHCNKF | – | – | – |
